In patent US20040214833A1, “Tricyclic heteroaromatic compounds” (Boehringer Ingelheim International GmbH, priority 2003, published 2004):
Where two headings read alike, the source gives them in different places.

Target: T1, N-type calcium channel (Homo sapiens, UniProt Q00975)
T1 construct: expressed in transfected cells; host or cells: HEK 293
Assay: Patch-Clamp blockade of voltage-dependent N-type calcium channels in recombinant HEK 293 cells
Format: cell-based
Description: The antinociceptive activity of the compounds of this invention is based on a blockade of the voltage-dependent N-type calcium channels. This inhibiting activity is detected electrophysiologically by the Patch-Clamp technique (cf: Improved patch-clamp techniques for high resolution current recording from cells and cell-free membrane patches; Hamill et al.; Pflügers Archiv, 391, 1981, 85-100) on recombinant HEK 293 cells which express the N-type calcium channel.

[1] = N-type calcium channel, Patch-Clamp, HEK 293 cells, read-out: IC50 value
[2] = Patch-Clamp technique, recombinant HEK 293 cells which express the N-type calcium channel, read-out: IC50 values

T1 sequence (Q00975 whole entry): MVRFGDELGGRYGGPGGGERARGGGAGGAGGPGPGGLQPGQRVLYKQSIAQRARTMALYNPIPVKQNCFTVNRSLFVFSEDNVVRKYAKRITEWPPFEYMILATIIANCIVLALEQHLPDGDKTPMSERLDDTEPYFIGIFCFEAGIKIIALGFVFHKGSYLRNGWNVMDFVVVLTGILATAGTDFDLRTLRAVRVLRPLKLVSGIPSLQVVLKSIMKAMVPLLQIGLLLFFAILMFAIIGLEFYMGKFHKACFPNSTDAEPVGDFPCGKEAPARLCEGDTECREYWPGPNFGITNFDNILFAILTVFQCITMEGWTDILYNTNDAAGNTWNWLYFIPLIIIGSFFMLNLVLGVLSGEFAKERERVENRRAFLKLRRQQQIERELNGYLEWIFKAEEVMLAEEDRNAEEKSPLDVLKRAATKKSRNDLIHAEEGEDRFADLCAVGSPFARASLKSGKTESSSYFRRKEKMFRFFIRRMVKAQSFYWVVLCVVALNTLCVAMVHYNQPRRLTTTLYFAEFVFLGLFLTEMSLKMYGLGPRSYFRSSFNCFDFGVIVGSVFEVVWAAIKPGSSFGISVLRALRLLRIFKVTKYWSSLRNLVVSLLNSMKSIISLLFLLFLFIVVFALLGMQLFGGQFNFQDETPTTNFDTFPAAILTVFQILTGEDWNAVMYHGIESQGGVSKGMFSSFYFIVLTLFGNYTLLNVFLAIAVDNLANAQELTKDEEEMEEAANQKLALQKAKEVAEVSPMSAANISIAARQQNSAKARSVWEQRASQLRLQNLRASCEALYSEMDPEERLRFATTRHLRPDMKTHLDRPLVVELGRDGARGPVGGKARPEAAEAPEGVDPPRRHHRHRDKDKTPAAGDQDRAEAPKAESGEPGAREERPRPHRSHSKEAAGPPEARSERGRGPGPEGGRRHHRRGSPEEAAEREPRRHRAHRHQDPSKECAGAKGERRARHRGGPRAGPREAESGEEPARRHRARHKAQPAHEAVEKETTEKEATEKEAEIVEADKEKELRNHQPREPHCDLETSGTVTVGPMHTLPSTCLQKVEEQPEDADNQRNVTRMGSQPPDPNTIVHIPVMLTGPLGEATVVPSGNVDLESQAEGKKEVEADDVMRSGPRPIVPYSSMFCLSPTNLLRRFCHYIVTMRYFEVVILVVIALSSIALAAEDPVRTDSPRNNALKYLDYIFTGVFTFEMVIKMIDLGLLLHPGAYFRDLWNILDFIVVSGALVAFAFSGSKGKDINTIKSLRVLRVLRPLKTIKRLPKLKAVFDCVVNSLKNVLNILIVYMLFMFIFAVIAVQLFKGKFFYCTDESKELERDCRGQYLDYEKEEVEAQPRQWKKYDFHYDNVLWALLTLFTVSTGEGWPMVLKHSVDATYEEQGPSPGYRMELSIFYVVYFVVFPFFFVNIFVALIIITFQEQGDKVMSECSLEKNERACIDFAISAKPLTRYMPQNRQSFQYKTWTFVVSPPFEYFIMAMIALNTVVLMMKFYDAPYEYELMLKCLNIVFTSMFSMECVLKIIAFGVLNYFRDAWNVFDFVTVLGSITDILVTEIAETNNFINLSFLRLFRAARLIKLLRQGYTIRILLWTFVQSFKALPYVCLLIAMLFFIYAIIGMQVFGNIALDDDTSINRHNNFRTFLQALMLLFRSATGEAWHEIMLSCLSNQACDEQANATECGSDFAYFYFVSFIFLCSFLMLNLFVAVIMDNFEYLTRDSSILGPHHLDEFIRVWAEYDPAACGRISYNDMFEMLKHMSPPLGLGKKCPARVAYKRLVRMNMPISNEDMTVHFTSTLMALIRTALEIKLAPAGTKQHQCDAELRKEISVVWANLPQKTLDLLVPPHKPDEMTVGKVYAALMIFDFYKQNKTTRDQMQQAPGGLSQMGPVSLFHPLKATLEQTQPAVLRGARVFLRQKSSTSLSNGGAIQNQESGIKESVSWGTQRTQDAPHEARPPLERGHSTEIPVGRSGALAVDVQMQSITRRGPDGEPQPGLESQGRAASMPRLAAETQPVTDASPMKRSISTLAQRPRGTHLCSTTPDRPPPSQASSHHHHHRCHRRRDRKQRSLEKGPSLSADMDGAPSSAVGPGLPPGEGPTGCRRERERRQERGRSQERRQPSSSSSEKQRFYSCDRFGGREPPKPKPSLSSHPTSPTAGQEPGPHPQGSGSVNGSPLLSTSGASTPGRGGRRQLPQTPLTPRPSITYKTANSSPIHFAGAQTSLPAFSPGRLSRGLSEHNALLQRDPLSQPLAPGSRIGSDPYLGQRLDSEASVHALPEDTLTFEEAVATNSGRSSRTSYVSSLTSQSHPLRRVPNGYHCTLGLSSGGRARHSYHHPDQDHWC
T1 sequence (P54289 25-956 partner limits assumed): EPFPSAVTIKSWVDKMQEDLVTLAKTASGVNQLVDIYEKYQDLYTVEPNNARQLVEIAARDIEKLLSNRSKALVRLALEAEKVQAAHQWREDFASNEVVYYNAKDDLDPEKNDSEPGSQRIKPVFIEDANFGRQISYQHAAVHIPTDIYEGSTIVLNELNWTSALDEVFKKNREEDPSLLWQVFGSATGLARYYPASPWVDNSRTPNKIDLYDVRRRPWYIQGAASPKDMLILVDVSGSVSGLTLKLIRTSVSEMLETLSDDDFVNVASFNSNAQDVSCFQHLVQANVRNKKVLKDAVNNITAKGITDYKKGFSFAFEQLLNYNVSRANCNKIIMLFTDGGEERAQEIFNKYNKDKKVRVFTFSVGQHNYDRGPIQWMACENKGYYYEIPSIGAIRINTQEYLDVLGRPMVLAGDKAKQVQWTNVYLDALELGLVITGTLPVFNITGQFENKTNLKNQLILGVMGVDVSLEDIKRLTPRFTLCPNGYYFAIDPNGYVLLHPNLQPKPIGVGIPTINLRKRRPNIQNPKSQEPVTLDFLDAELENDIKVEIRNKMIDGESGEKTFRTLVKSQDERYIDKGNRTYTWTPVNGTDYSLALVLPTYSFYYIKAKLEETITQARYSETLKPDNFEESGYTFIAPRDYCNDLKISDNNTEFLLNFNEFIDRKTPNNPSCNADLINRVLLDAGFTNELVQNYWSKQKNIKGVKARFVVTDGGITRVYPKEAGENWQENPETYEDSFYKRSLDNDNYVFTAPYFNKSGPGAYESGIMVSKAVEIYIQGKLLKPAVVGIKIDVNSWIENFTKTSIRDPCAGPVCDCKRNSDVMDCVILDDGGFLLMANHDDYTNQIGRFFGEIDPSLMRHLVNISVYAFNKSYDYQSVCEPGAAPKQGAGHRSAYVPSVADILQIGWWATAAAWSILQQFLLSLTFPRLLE
T1 sequence (P54289 957-1103 partner limits assumed): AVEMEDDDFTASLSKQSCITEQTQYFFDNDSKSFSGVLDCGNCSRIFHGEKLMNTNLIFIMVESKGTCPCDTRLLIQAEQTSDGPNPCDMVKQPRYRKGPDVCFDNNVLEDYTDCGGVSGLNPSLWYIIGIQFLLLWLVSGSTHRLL
T1 sequence (P54284 whole entry partner): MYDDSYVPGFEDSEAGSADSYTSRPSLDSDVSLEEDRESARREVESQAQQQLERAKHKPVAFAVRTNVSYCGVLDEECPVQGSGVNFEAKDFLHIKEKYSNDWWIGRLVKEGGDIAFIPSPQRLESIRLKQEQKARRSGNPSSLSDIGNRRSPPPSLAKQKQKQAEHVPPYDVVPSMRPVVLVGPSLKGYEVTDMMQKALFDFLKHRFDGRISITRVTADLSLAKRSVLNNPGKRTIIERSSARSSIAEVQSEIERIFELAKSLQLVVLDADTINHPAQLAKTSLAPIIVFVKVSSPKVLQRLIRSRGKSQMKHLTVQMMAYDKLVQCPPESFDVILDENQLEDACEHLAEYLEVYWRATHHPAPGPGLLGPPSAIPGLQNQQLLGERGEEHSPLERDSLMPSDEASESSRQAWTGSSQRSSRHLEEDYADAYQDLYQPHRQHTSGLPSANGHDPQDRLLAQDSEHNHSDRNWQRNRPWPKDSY

Compound | IC50 [1] | IC50 [2] | other results
CNc1cc(-c2ccncc2)nc2ccc3c(ncn3C)c12 [Example 1, 3-methyl-9-methylamino-7-(pyridin-4-yl)-3H-imidazo[4,5-f]quinoline] | 9.9 µM | – | –
CNc1cc(-c2cccc(F)c2)nc2ccc3c(ncn3C)c12 [Example 2, 7-(3-fluorophenyl)-3-methyl-9-methylamino-3H-imidazo [4,5-f]quinoline] | 15.2 µM | – | –
CN(C)c1cc(-c2cccc(F)c2)nc2ccc3c(ncn3C)c12 [Example 3, 9-dimethylamino-7-(3-fluorophenyl)-3-methyl-3H-imidazo [4,5-f]quinoline] | – | – | IC50 value (N-type calcium channel, Patch-Clamp, HEK 293 cells): biphasic
Cc1nc2c(ccc3nc(-c4cccc(F)c4)cc(N(C)C)c32)s1 [Example 4, 9-dimethylamino-7-(3-fluorophenyl)-2-methyl-thiazolo[4,5-f]quinoline] | – | 3.6 µM | –
CN(C)c1cc(-c2cccc(F)c2)nc2ccc3ncsc3c12 [Example 5, 9-dimethylamino-7-(3-fluorophenyl)-thiazolo[5,4-f]quinoline] | 14.3 µM | – | –
CNc1cc(-c2cccc(F)c2)nc2ccc3sc(C)nc3c12 [Example 6, 7-(3-fluorophenyl)-2-methyl-9-methylamino thiazolo[4,5-f]quinoline] | – | 2 µM | –
